These results are taken from US12083109B2, “Neurokinin antagonists and uses thereof” (California Institute of Technology, priority 2017, dated 2024).

Entries after “also recorded” stand apart in the source; their conditions may differ. Where two headings read alike, the source gives them in different places.

For data set [1], the target named is T1, NK3R (Homo sapiens, UniProt P29371).
T1 construct: host or cells: human trial subjects
T1 sequence (P29371 1-465): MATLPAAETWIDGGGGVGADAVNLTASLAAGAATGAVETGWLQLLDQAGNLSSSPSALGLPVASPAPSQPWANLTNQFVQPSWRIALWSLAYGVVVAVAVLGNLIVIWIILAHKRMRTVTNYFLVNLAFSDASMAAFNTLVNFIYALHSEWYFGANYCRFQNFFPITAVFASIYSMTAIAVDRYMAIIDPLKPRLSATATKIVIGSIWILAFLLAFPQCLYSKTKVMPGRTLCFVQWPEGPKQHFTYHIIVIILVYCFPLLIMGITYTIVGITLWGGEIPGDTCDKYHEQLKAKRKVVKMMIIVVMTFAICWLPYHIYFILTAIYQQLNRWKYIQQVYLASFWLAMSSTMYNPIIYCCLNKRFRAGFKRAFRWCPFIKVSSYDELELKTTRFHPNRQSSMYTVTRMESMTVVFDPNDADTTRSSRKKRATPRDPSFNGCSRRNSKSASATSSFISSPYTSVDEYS
The conditions noted are these: cited from earlier work; for safety and tolerability in clinical trials: human, Phase I.

The subject of data set [2] is Tac2. The experiment in a line: Resident intruder assay, Tac2 shRNA knockdown. The data set is classed as in vivo, mouse. The following applies: SIS mice. The text has this:
Small hairpin RNA (shRNA) for the mouse Tac2 gene (NM_009312.2) were designed using the online designing tool siDirect 2.0 (http://sidirect2.mai.jp/) (Naito et al., 2009; incorporated by reference in its entirety).
8-16 week old mice were anesthetized with isoflurane and mounted in a stereotaxic apparatus (Kopf Instruments). Anesthesia was maintained throughout surgery at 1-1.5% isoflurane. The skull was exposed and small burr holes produced dorsal to each injection site using a stereotaxic mounted drill. […] Directly following surgery, mice were given a subcutaneous injection of ketoprofen (2 mg/kg) and supplied with drinking water containing 400 mg/L sulphamethoxazole and 200 mg/L ibuprofen and monitored for 7 days. […]
Testing for aggression using the resident intruder assay (Blanchard et al., 2003; incorporated by reference in its entirety) was performed as previously described (Hong et al., 2015; Hong et al., 2014; Lee et al., 2014; incorporated by reference in their entirety). […] Fighting bouts were scored on a frame-by-frame basis and were defined as a frame during which the resident male was engaged in an episode of biting or intense aggressive behavior immediately surrounding a biting episode. Annotation files were then batch analyzed for behavior, including number of fighting bouts, using in-house customized programs in MATLAB (A. Kennedy, Caltech). […]

Turning to `CC(=O)N(C)C1(c2ccccc2)CCN(CCC[C@]2(c3ccc(Cl)c(Cl)c3)CCCN(C(=O)c3ccccc3)C2)CC1` [osanetant, N-(1-{3-[(3R)-1-benzoyl-3-(3,4-dichlorophenyl)piperidin-3-yl]propyl}-4-phenylpiperidin-4-yl)-N-methylacetamide], in data set [1] (human clinical trials), the “efficacy in schizophrenia, bipolar and panic disorder” value is “lack of efficacy”. The “efficacy in schizophrenia and major depressive disorder” value in data set [1] (human trials, Phase II/III) is “lack of efficacy”. The “safety and tolerability in clinical trials” value is “safe and well-tolerated” in data set [1]; “well tolerated; also recorded: exhibited safety” in data set [1] (listed as Osanetant).

B1: shRNA-1: small hairpin RNA for mouse Tac2 gene (SEQ ID NO: 9, 10), expressed from AAV5-H1-shRNA-CMV-zsGreen (nucleic acid)
chain 1: CCGACGTGGTTGAAGAGAACACCGCTTCCTGTCACGGTGTTCTCTTCAACCACGTCTTTTTT
chain 2: AAAAAAGACGTGGTTGAAGAGAACACCGTGACAGGAAGCGGTGTTCTCTTCAACCACGTCGG
B1: the SIS-induced aggression entry is on record as “blocked” in data set [2] (AAV shRNA in DMH) and “had no effect” in data set [2] (AAV shRNA in dBNSTa).
